In ChEMBL document CHEMBL1154119, “Rational design, synthesis and characterization of potent, non-peptidic Smac mimics/XIAP inhibitors as proapoptotic agents for cancer therapy” (Bioorg Med Chem, 2009):
Blank lines part the entries; values can stand above or below the compound they belong to.

Assays:
[1] = system: HL-60; assay: Cytotoxicity against human HL60 cells after 96 hrs by MTT assay; details: HL-60, 96 h
[2] = system: PC-3; assay: Cytotoxicity against human PC3 cells after 96 hrs by MTT assay; details: PC-3, 96 h
[3] = Metabolic stability of compound in phosphate buffer in presence of human CYP3A4 and NADPH; format: ADME
[4] = system: MDA-MB-231; assay: cells; details: Homo sapiens, MDA-MB-231, 96 h
Description: Cytotoxicity against human MDA-MB-231 cells after 96 hrs by MTT assay

[5] = target: T1, E3 ubiquitin-protein ligase XIAP (Homo sapiens, UniProt P98170)
T1 sequence (P98170 whole entry): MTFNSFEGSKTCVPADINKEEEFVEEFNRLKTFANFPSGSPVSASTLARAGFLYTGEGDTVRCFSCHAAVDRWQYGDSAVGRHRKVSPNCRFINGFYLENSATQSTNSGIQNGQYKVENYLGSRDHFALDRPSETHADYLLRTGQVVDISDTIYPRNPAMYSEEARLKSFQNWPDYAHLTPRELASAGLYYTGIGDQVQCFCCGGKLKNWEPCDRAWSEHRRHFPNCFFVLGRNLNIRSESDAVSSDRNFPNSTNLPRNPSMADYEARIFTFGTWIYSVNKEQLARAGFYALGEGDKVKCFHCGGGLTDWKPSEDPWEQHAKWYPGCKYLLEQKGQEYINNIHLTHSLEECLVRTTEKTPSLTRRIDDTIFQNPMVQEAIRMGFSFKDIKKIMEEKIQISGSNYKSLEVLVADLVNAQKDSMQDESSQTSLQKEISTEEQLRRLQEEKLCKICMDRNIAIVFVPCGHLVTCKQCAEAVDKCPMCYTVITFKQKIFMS
Description: Binding affinity to human recombinant XIAP linker BIR2-BIR3 expressed in Escherichia coli BL21 by fluorescence polarization assay

[6] = Solubility at pH 7.4; format: physicochemical; details: buffer
[7] = Solubility at pH 3; format: physicochemical; details: buffer
[8] = target: T1, E3 ubiquitin-protein ligase XIAP; remark: listed apart in the source
Description: Binding affinity to human recombinant XIAP BIR3 domain expressed in Escherichia coli BL21 by fluorescence polarization assay

Stability [3]: 86% | IC50 [4]: […]
Structure (SMILES): CC[C@H](NC)C(=O)N[C@@H]1C(=O)N2[C@@H](CC[C@@H]1CO)CC[C@H]2C(=O)NC(c1ccccc1)c1ccccc1
IC50 [1]: 26.1 µM | IC50 [2]: > 100 µM

Stability [3]: 78% | IC50 [4]: 0.542 µM
Structure (SMILES): CC[C@H](NC)C(=O)N[C@@H]1C(=O)N2[C@@H](CC[C@@H]1CN)CC[C@H]2C(=O)NC(c1ccccc1)c1ccccc1
IC50 [1]: 51.8 µM | IC50 [2]: 51.7 µM

Stability [3]: 75% | IC50 [5]: 0.086 µM | IC50 [4]: 12.9 µM
Structure (SMILES): CC[C@H](N)C(=O)N[C@@H]1C(=O)N2[C@@H](CC[C@@H]1CCN)CC[C@H]2C(=O)NC(c1ccccc1)c1ccccc1
IC50 [1]: 25 µM | IC50 [2]: 85.2 µM

Stability [3]: 86% | IC50 [4]: 2.3 µM
Structure (SMILES): CC[C@H](NC)C(=O)N[C@@H]1C(=O)N2[C@@H](CC[C@@H]1CCN)CC[C@H]2C(=O)NC(c1ccccc1)c1ccccc1
IC50 [1]: 31 µM | IC50 [2]: > 100 µM

Stability [3]: 65% | IC50 [4]: 0.93 µM
Structure (SMILES): CC[C@H](N)C(=O)N[C@@H]1C(=O)N2[C@@H](CC[C@@H]1CCNC(=O)c1ccccc1)CC[C@H]2C(=O)NC(c1ccccc1)c1ccccc1
IC50 [1]: 50.7 µM | IC50 [2]: > 100 µM

Stability [3]: 43% | IC50 [4]: 0.21 µM
Structure (SMILES): CC[C@H](NC)C(=O)N[C@@H]1C(=O)N2[C@@H](CC[C@@H]1CCNC(=O)c1ccccc1)CC[C@H]2C(=O)NC(c1ccccc1)c1ccccc1
IC50 [1]: 32.6 µM | IC50 [2]: > 100 µM

Stability [3]: 81% | solubility [6]: Soluble | solubility [7]: Soluble | IC50 [8]: 0.11 µM | IC50 [5]: 0.027 µM | IC50 [4]: 0.141 µM
Structure (SMILES): CC[C@H](NC)C(=O)N[C@@H]1C(=O)N2[C@@H](CC[C@@H]1CCNCc1ccccc1)CC[C@H]2C(=O)NC(c1ccccc1)c1ccccc1
IC50 [1]: 5.2 µM | IC50 [2]: 7.8 µM

IC50 [4]: 1.8 µM
Structure (SMILES): CC[C@H](N)C(=O)N[C@@H]1C(=O)N2[C@@H](CC[C@@H]1CCO)CC[C@H]2C(=O)NC(c1ccccc1)c1ccccc1
IC50 [1]: > 100 µM | IC50 [2]: > 100 µM

Stability [3]: 93% | IC50 [4]: 6.03 µM
Structure (SMILES): CC[C@H](N)C(=O)N[C@@H]1C(=O)N2[C@@H](CC[C@@H]1CN)CC[C@H]2C(=O)NC(c1ccccc1)c1ccccc1
IC50 [1]: 69.3 µM | IC50 [2]: > 100 µM

Stability [3]: 81% | IC50 [4]: 0.286 µM
Structure (SMILES): CCNC[C@H]1CC[C@H]2CC[C@@H](C(=O)NC(c3ccccc3)c3ccccc3)N2C(=O)[C@H]1NC(=O)[C@@H](N)CC
IC50 [1]: 84 µM | IC50 [2]: > 100 µM

IC50 [4]: 8 µM
Structure (SMILES): CCNCC[C@H]1CC[C@H]2CC[C@@H](C(=O)NC(c3ccccc3)c3ccccc3)N2C(=O)[C@H]1NC(=O)[C@@H](N)CC
IC50 [1]: 62.8 µM | IC50 [2]: > 100 µM

Stability [3]: 73% | IC50 [4]: 3.4 µM
Structure (SMILES): CC[C@H](N)C(=O)N[C@@H]1C(=O)N2[C@@H](CC[C@@H]1CNC(=O)NCc1ccccc1)CC[C@H]2C(=O)NC(c1ccccc1)c1ccccc1
IC50 [1]: 51 µM | IC50 [2]: > 100 µM

Stability [3]: 81%
Structure (SMILES): CC[C@H](N)C(=O)N[C@@H]1C(=O)N2[C@@H](CC[C@@H]1CNC(=O)c1ccccc1)CC[C@H]2C(=O)NC(c1ccccc1)c1ccccc1
IC50 [1]: 36 µM | IC50 [2]: 80.1 µM

The next lines start with the compound.

Structure (SMILES): CC[C@H](NC)C(=O)N[C@H]1CCC[C@H]2CC[C@@H](C(=O)NC(c3ccccc3)c3ccccc3)N2C1=O
IC50 [1]: 20.2 µM | IC50 [2]: 56.9 µM | Stability [3]: 83% | IC50 [4]: 0.146 µM

Structure (SMILES): CC[C@H](N)C(=O)N[C@H]1CCC[C@H]2CC[C@@H](C(=O)NC(c3ccccc3)c3ccccc3)N2C1=O
IC50 [1]: 24.5 µM | IC50 [2]: > 100 µM | Stability [3]: 87% | IC50 [4]: > 100 µM

Structure (SMILES): CC[C@H](N)C(=O)N[C@@H]1C(=O)N2[C@@H](CC[C@@H]1CO)CC[C@H]2C(=O)NC(c1ccccc1)c1ccccc1
IC50 [1]: 6.5 µM | IC50 [2]: > 100 µM | Stability [3]: 79% | IC50 [4]: 1.03 µM

Structure (SMILES): CCNCC[C@H]1CC[C@H]2CC[C@@H](C(=O)NC(c3ccccc3)c3ccccc3)N2C(=O)[C@H]1NC(=O)[C@H](CC)NC
IC50 [1]: 76.4 µM | IC50 [2]: > 100 µM | Stability [3]: 90% | IC50 [4]: 1.3 µM

Structure (SMILES): CC[C@H](N)C(=O)N[C@@H]1C(=O)N2[C@@H](CC[C@@H]1CCNC(=O)NCc1ccccc1)CC[C@H]2C(=O)NC(c1ccccc1)c1ccccc1
IC50 [1]: 83.3 µM | IC50 [2]: > 100 µM | Stability [3]: 65% | IC50 [4]: 10.8 µM

Structure (SMILES): CC[C@H](NC)C(=O)N[C@@H]1C(=O)N2[C@@H](CC[C@@H]1CCNC(=O)NCc1ccccc1)CC[C@H]2C(=O)NC(c1ccccc1)c1ccccc1
IC50 [1]: 52.2 µM | IC50 [2]: 83.5 µM | Stability [3]: 51% | IC50 [4]: 1.2 µM

Structure (SMILES): CC[C@H](N)C(=O)N[C@@H]1C(=O)N2[C@@H](CC[C@@H]1CCNCc1ccccc1)CC[C@H]2C(=O)NC(c1ccccc1)c1ccccc1
IC50 [1]: 15.4 µM | IC50 [2]: 39.2 µM | IC50 [4]: 0.4 µM

Structure (SMILES): CC[C@H](NC)C(=O)N[C@@H]1C(=O)N2[C@@H](CC[C@@H]1CCO)CC[C@H]2C(=O)NC(c1ccccc1)c1ccccc1
IC50 [1]: 74.8 µM | IC50 [2]: > 100 µM | IC50 [4]: 0.173 µM

Structure (SMILES): CC[C@H](N)C(=O)N[C@@H]1C(=O)N2[C@@H](CC[C@@H]1CNCc1ccccc1)CC[C@H]2C(=O)NC(c1ccccc1)c1ccccc1
IC50 [1]: 13.1 µM | IC50 [2]: 24.1 µM | IC50 [4]: 0.099 µM
